The nature of data set [1]: Molar enthalpy of transition or fusion. The following applies: Crystal; DSC.
For data set [2] the following is noted: DSC. For orientation: In DSC, transitions show as peaks or steps in heat flow.

Numbers after ± are expanded uncertainties.

The record followed here is the NIST ThermoML archive (doi:10.1016/j.tca.2018.05.020).

In the case of `CNC(=O)c1ccc(N2C(=S)N(c3ccc(C#N)c(C(F)(F)F)c3)C(=O)C2(C)C)cc1F` [Enzalutamide], the “Molar enthalpy of transition or fusion” value in data set [1] was 8.61 ± 0.222 kcal/mol. Besides, in data set [2] (Crystal), the Triple point temperature is on record as 469.15 ± 1 K. In data set [2] (Glass), the Glass transition temperature came out at 85.00 ± 1 °C.
